Results from article PMC10304225, “In Vitro Cytotoxicity and In Vivo Antitumor Activity of Lipid Nanocapsules Loaded with Novel Pyridine Derivatives” (Pharmaceutics, 2023).
Values after ≈ are worked out from the molar mass of the structure shown.

Key:
[1] = test system: MCF-7 cells; assay: In vitro cytotoxicity, MTT assay; type: cell-based, human; settings: 48 h, read-out: IC50 against MCF-7
Method: (§1) A human lung cancer (A549) cell line, human breast adenocarcinoma (MCF-7), and normal MCF-10A human […] were obtained from VASCERA Co. (Vaccines Sera and Drugs; Cairo, Egypt). […] were cultured in Dulbecco’s modified Eagle’s medium (DMEM, Biowest, Nuaillé, France) supplemented with 10% fetal bovine serum, 100 U/mL penicillin/100 μg/mL streptomycin, and incubated under standard conditions (37 °C, 5% CO2).
(§2) The in vitro cytotoxicities of various pyridine derivatives loaded into LPNCs against A549 cells and MCF-7 cells were evaluated by the MTT assay. Briefly, 100 μL cell suspension equivalent to 1 × 10^4 cells/well was planted in a 96-well plate and incubated at 37 °C. At 24 h post-incubation, the cells were treated with 100 μL of serial dilutions of either free pyridine derivatives (S1–S4) or pyridine derivatives (S1–S4)-loaded LPNCs in a concentration range of 0.1 to 100 μM. The cells were further incubated at 37 °C for 48 h. The spent culture medium was then decanted, the cells were rinsed, 50 μL of MTT reagent (0.5 mg/mL) was added to each well, and the cells were incubated for 4 h at 37 °C. Finally, to dissolve the formazan crystals, DMSO solution (150 μL) was added to each well. The absorbance of each well was measured at 570 nm using a microplate reader (TEKAN Japan, Kawasaki, Japan). The percent cell viability was plotted against the tested compound concentration to determine the IC50 values.

[2] = test system: A549 cells; assay: In vitro cytotoxicity, MTT assay; type: cell-based, human; settings: 48 h, read-out: IC50 against A549
Method: as §1, §2

[3] = Solubility measurement in various solvents (excess compound, 72 h shaking); type: physicochemical; settings: for solubility in PB (pH 7.4): phosphate buffer pH 7.4
Method: The solubility of 2-amino-4-aryl-6-substituted pyridine-3,5-dicarbonitrile derivatives (S1–S4) in various solvents (methanol, ethanol, phosphate buffer, and water) was determined by adding an excess amount of each compound to 10 mL of each solvent in a sealed conical flask. The slurry was then agitated at 100 rpm in a temperature-controlled incubator shaker for 72 h to reach equilibrium. The undissolved particles were allowed to settle by keeping the saturated solution without agitation for another 2 h. The solution was then centrifuged at 10,000 rpm for 10 min. One mL samples of the clear supernatant was withdrawn, diluted with the suitable solvent, and finally analyzed spectrophotometrically at pre-determined wavelengths (Table S1).

[4] = test system: Ehrlich ascites carcinoma (EAC) solid tumor; assay: In vivo antitumor activity in EAC solid tumor-bearing mice; settings: 10 mg/kg i.p. every other day for 21 days
Method: Ehrlich ascites carcinoma (EAC) cells (1 × 10^6 cells) obtained from the National Cancer Institute (Cairo, Egypt) were injected intraperitoneally into the peritoneal cavity of Swiss Albino mice. On day 7 post tumor cell inoculation, ascites fluid was collected. EAC was diluted with saline to obtain a cell density of 25 × 10^6 cells/mL. Then, 200 μL of the cells were injected subcutaneously in the mice’s right flanks. Tumor growth was monitored post-inoculation, and the size of the tumor was measured with a Vernier caliper. Treatment protocols were initiated on day 8 post tumor inoculation, when the tumor was palpable. […]
The dose and route of administration of the test compound and the treatment regimen were established based on previously published reports. The antitumor efficacy of different treatment protocols was evaluated in terms of tumor size, percentage tumor growth inhibition (% TGI), median survival time (MST), and percentage increase in life span (% ILS) using the following equations [31, 32]:Tumor size (mm^3) = ½ (Length × Width^2) % TGI=1−Mean tumor volume of treated group/Mean tumor volume in control group×100 MST = (day of first death + day of last death)/2 %ILS=MSTtreated group/MSTcontrol group−1×100
In addition, body weight was assessed concurrently to determine any remarkable systemic toxicity.

[5] = test system: Swiss Albino mice; assay: Median lethal dose (LD50), single i.p. injection; type: in vivo; settings: for Number of animal dead: n=5, 24 h
Method: The median lethal dose (LD50) test was performed to determine the dose of a test substance that elicits 50% death in mice. Briefly, a total of 30 mice were categorized into 6 groups (n = 5). Each group was dosed with a single intraperitoneal injection of the test compound (S4) dissolved in 3% dimethyl sulfoxide. The screened doses ranged from 100 to 180 mg/kg. The animals were then monitored for 2 h and then at 4, 6, and 24 h for signs of toxicity. At the end of 24 h, the total number of deaths was recorded. The LD50 was then calculated using the following equation [27]: LD50=LD100−{Σ[Dose difference×Mean dead]}/Number of animals per group where LD100 is the lowest dose capable of killing 100% of animals.

[6] = test system: Swiss Albino mice; assay: Acute toxicity study, single i.p. dose; type: in vivo
Method: Acute toxicity studies are carried out in order to evaluate the short-term negative effects of a test compound when administered in a single dose during a period of 24 h. Briefly, the maximum tolerated dose (100 mg/kg) of the test compound (S4), dissolved in 3% dimethyl sulfoxide, was injected intraperitoneally in a group of mice (n = 5). A control group (n = 5) was i.p. injected with an equivalent volume of 3% dimethyl sulfoxide. The mice were then observed for general behavior for 1 h post-treatment and then intermittently for 4 h and finally at 24 h. The mice were then monitored for up to 14 days after treatment for symptoms of toxicity or mortalities.

[7] = Biochemical analysis of liver and kidney functions in serum; type: in vivo; settings: EAC-bearing mice, 10 mg/kg i.p., last day of experiment
Method: On the last day of the experiment, 4 out 8 mice were euthanized, and blood samples were collected by cardiac puncture in dry Eppendorf tubes. Blood samples were set aside for 30 min at room temperature and the tubes were then centrifuged for 15 min at 2000× g to obtain serum. To assess possible hepatic damage, aspartate transaminase (AST) and alanine transaminase (ALT) activities in serum samples were assayed by using a commercial kit (Biodiagnostic, Cairo, Egypt) according to the method of Reitman and Frankel. In addition, serum creatinine level was quantified as an indicator for possible renal damage. The level of serum creatinine was analyzed by using a commercial kit that was purchased from Biodiagnostic (Cairo, Egypt) according to manufacturer instructions.

[8] = test system: Ehrlich ascites carcinoma (EAC) solid tumor; assay: Histopathological examination of solid tumors (H&E); type: in vivo, mice; settings: 10 mg/kg
Method: On the last day of the experiment, solid tumors were dissected from all mice and were fixed […] in formalin-alcohol for 48 h, dehydrated in an alcohol series, cleared in xylene, and embedded in paraffin. Sections (4–5 μm in thickness) were stained with hematoxylin and eosin (H&E). Slides were then imaged using a Universal Infinity System optical microscope (Olympus®, Tokyo, Japan) equipped with a computer-controlled digital camera. A histopathological analysis of the tumor sections was focused on finding a typical mitotic picture, neoplastic giant cells, and the extension of the necrotic area. Histopathological examinations were evaluated in a blinded way by a pathologist.

SMILES	IC50 [1]	IC50 [2]	solubility in ethanol [3]	solubility in methanol [3]	solubility in PB (pH 7.4) [3]	solubility in water [3]	tumor growth inhibition rate (TGI (%)) [4]	lethality and signs of toxicity ([5]; 100 mg/kg i.p.)	Number of animal dead ([5]; 100 mg/kg i.p.)	lethality ([5]; 120 mg/kg and higher, i.p.)	Number of animal dead ([5]; 120 mg/kg i.p.)	Number of animal dead ([5]; 140 mg/kg i.p.)	Number of animal dead ([5]; 160 mg/kg i.p.)	Number of animal dead ([5]; 180 mg/kg i.p.)	maximum tolerated dose ([6]; mice, i.p.)	acute toxicity observations ([6]; up to 100 mg/kg i.p., monitored up to 14 days)	ALT [7]	AST [7]	Creatinine [7]	tumor section histology [8]
Cc1ccc(Nc2nc(N)c(C#N)c(-c3ccccc3)c2C#N)cc1 [Compound S2]	> 100 µM	> 100 µM	13.82 ± 0.326 mg/mL (≈ 42.5 mM)	25.71 ± 0.323 mg/mL (≈ 79 mM)	1.63 ± 0.005 mg/ml	1.25 ± 0.006 mg/mL (≈ 3.84 mM)	–	–	–	–	–	–	–	–	–	–	–	–	–	–
N#Cc1c(N)nc(N)c(C#N)c1-c1ccccc1 [Compound S3]	> 100 µM	> 100 µM	18.86 ± 0.225 mg/mL (≈ 80.2 mM)	35.36 ± 0.203 mg/mL (≈ 150 mM)	0.59 ± 0.010 mg/ml	0.99 ± 0.007 mg/mL (≈ 4.21 mM)	–	–	–	–	–	–	–	–	–	–	–	–	–	–
N#Cc1c(N)nc(Nc2ccccc2)c(C#N)c1-c1ccccc1 [Compound S4]	> 100 µM	> 100 µM	18.56 ± 0.337 mg/mL (≈ 59.6 mM)	16.57 ± 0.315 mg/mL (≈ 53.2 mM)	0.59 ± 0.001 mg/ml	0.58 ± 0.002 mg/mL (≈ 1.86 mM)	73.42%	not lethal but only induced drowsiness	0	lethal to animals	5	5	5	5	100 mg/kg	no behavioral abnormalities, toxicity symptoms, or mortalities were detected	20.50 ± 1.28 IU/L	36.66 ± 1.87 IU/L	0.54 ± 0.02 mg/dL	loss of cellular architecture and tumor tissue compactness
O=c1[nH]cc(F)c(=O)[nH]1 [Compound 5-FU, 5-fluorouracil, reference compound]	–	–	–	–	–	–	86.81%	–	–	–	–	–	–	–	–	–	51.87 ± 1.29 IU/L	74.23 ± 3.84 IU/L	1.05 ± 0.15 mg/dL	loss of cellular architecture and tumor tissue compactness
CCNc1nc(N)c(C#N)c(-c2ccccc2)c1C#N [Compound S1]	> 100 µM	> 100 µM	5.98 ± 0.230 mg/mL (≈ 22.7 mM)	21.76 ± 0.260 mg/mL (≈ 82.6 mM)	–	0.57 ± 0.021 mg/mL (≈ 2.16 mM)	–	–	–	–	–	–	–	–	–	–	–	–	–	–
